Measurements reported in the NIST ThermoML archive (doi:10.1016/j.jct.2018.04.018).
Several values for one entry are separate records, joined by “and”; a condition that tells them apart may be missing. Equal values may be shown once.

Settings: 101.33 kPa, Liquid; for speed of sound: Single path-length method; for mass density: Vibrating tube method

CCCCCCCC[n+]1ccn(C)c1.F[P-](F)(F)(F)(F)F [1-octyl-3-methylimidazolium hexafluorophosphate]
Settings	viscosity
332.11 K, Cone and plate viscometry	101.6 mPa·s
332.85 K, Cone and plate viscometry	99.6 mPa·s and 99.3 mPa·s
333.15 K, Concentric cylinders viscometry	98.3 mPa·s
333.59 K, Cone and plate viscometry	95.7 mPa·s and 96 mPa·s
334.34 K, Cone and plate viscometry	92.5 mPa·s
334.35 K, Cone and plate viscometry	93 mPa·s
335.07 K, Cone and plate viscometry	89.7 mPa·s
335.09 K, Cone and plate viscometry	89.6 mPa·s
335.82 K, Cone and plate viscometry	86.7 mPa·s and 86.8 mPa·s
336.57 K, Cone and plate viscometry	84.1 mPa·s
337.31 K, Cone and plate viscometry	81.6 mPa·s and 81.7 mPa·s
338.05 K, Cone and plate viscometry	79.3 mPa·s
338.06 K, Cone and plate viscometry	78.8 mPa·s
338.79 K, Cone and plate viscometry	76.6 mPa·s
338.81 K, Cone and plate viscometry	76.2 mPa·s
339.54 K, Cone and plate viscometry	73.9 mPa·s and 74.2 mPa·s
340.28 K, Cone and plate viscometry	72 mPa·s
340.29 K, Cone and plate viscometry	71.9 mPa·s
341.03 K, Cone and plate viscometry	70 mPa·s
341.04 K, Cone and plate viscometry	69.8 mPa·s
341.77 K, Cone and plate viscometry	68 mPa·s and 68.1 mPa·s
342.51 K, Cone and plate viscometry	66.1 mPa·s and 66.6 mPa·s
343.15 K, Concentric cylinders viscometry	64.9 mPa·s
343.25 K, Cone and plate viscometry	64.1 mPa·s and 63.9 mPa·s
344 K, Cone and plate viscometry	62.2 mPa·s and 62 mPa·s
344.73 K, Cone and plate viscometry	60.4 mPa·s
344.76 K, Cone and plate viscometry	60.4 mPa·s
345.48 K, Cone and plate viscometry	58.8 mPa·s
345.51 K, Cone and plate viscometry	58.8 mPa·s
346.22 K, Cone and plate viscometry	57.2 mPa·s
346.29 K, Cone and plate viscometry	56.9 mPa·s
346.97 K, Cone and plate viscometry	55.4 mPa·s
347.05 K, Cone and plate viscometry	55.1 mPa·s
347.72 K, Cone and plate viscometry	53.8 mPa·s
347.81 K, Cone and plate viscometry	53.7 mPa·s
348.46 K, Cone and plate viscometry	52.4 mPa·s
348.57 K, Cone and plate viscometry	52.3 mPa·s
349.19 K, Cone and plate viscometry	51.1 mPa·s
349.33 K, Cone and plate viscometry	50.8 mPa·s
349.94 K, Cone and plate viscometry	49.7 mPa·s
350.07 K, Cone and plate viscometry	49.4 mPa·s
350.69 K, Cone and plate viscometry	48.3 mPa·s
350.77 K, Cone and plate viscometry	48.2 mPa·s
351.42 K, Cone and plate viscometry	47 mPa·s
351.48 K, Cone and plate viscometry	47.2 mPa·s
352.16 K, Cone and plate viscometry	46 mPa·s
352.22 K, Cone and plate viscometry	46.3 mPa·s
352.91 K, Cone and plate viscometry	45.1 mPa·s
352.99 K, Cone and plate viscometry	45.2 mPa·s
353.15 K, Concentric cylinders viscometry	44.7 mPa·s
353.66 K, Cone and plate viscometry	43.7 mPa·s
353.75 K, Cone and plate viscometry	44.3 mPa·s
354.39 K, Cone and plate viscometry	42.6 mPa·s
354.48 K, Cone and plate viscometry	43 mPa·s
355.14 K, Cone and plate viscometry	41.9 mPa·s
355.2 K, Cone and plate viscometry	42 mPa·s
355.88 K, Cone and plate viscometry	40.9 mPa·s
355.92 K, Cone and plate viscometry	41.3 mPa·s
356.63 K, Cone and plate viscometry	40.2 mPa·s
356.66 K, Cone and plate viscometry	40.5 mPa·s
357.36 K, Cone and plate viscometry	39 mPa·s
357.39 K, Cone and plate viscometry	39.2 mPa·s
358.1 K, Cone and plate viscometry	37.6 mPa·s
358.11 K, Cone and plate viscometry	38 mPa·s
358.85 K, Cone and plate viscometry	36.5 mPa·s
358.86 K, Cone and plate viscometry	37 mPa·s
359.6 K, Cone and plate viscometry	35.6 mPa·s and 36.5 mPa·s
360.35 K, Cone and plate viscometry	34.8 mPa·s and 35.7 mPa·s
361.08 K, Cone and plate viscometry	34.6 mPa·s
361.09 K, Cone and plate viscometry	35 mPa·s
361.82 K, Cone and plate viscometry	33.9 mPa·s and 34 mPa·s
362.57 K, Cone and plate viscometry	32.8 mPa·s
362.58 K, Cone and plate viscometry	32.5 mPa·s
363.15 K, Concentric cylinders viscometry	32.1 mPa·s
363.31 K, Cone and plate viscometry	32.1 mPa·s
363.32 K, Cone and plate viscometry	31.9 mPa·s
364.05 K, Cone and plate viscometry	31.3 mPa·s and 31.4 mPa·s
364.79 K, Cone and plate viscometry	31.1 mPa·s
364.8 K, Cone and plate viscometry	30.9 mPa·s
365.54 K, Cone and plate viscometry	29.7 mPa·s and 30.4 mPa·s
366.28 K, Cone and plate viscometry	29.6 mPa·s
366.29 K, Cone and plate viscometry	29.1 mPa·s
367.02 K, Cone and plate viscometry	28.7 mPa·s and 28.9 mPa·s
367.76 K, Cone and plate viscometry	27.9 mPa·s and 28.2 mPa·s
368.49 K, Cone and plate viscometry	27.6 mPa·s
368.51 K, Cone and plate viscometry	27.1 mPa·s
369.24 K, Cone and plate viscometry	27 mPa·s

Settings	mass density	speed of sound [m/s]
333.15 K	1209.85 kg/m3 [middle of 4 runs]	1318.6
343.15 K	1202.43 kg/m3 [middle of 4 runs]	–
343.16 K	–	1296.1
353.15 K	1195.18 kg/m3 and 1195.41 kg/m3	–
363.15 K	1188.37 kg/m3 and 1188.53 kg/m3	–
